Data taken from article PMC6709224, “PIM-Related Kinases Selectively Regulate Olfactory Sensations in Caenorhabditis elegans” (eNeuro, 2019).

Columns and labels:
Assay type in all cases: biochemical
[1] = biological target: T1, PIM-1 (Homo sapiens, UniProt P11309); assay: radioactive in vitro kinase assay (autophosphorylation and NFATC1 […]-418 phosphorylation); settings: 10 µM inhibitor, 10-20 min pre-incubation, gamma-32P-ATP, 0.1% DMSO control
T1 construct: gene PIM1; full-length short isoform (313 residues, recalled), GST fusion expressed in bacteria

[2] = biological target: T2, PRK-2 (Caenorhabditis elegans, UniProt Q20443); assay: as above; settings: 10 µM inhibitor, 10-20 min pre-incubation, gamma-32P-ATP, 0.1% DMSO control
T2 construct: full-length, GST fusion in pGEX-6P-2, expressed in bacteria
T2 sequence (Q20443 1-441): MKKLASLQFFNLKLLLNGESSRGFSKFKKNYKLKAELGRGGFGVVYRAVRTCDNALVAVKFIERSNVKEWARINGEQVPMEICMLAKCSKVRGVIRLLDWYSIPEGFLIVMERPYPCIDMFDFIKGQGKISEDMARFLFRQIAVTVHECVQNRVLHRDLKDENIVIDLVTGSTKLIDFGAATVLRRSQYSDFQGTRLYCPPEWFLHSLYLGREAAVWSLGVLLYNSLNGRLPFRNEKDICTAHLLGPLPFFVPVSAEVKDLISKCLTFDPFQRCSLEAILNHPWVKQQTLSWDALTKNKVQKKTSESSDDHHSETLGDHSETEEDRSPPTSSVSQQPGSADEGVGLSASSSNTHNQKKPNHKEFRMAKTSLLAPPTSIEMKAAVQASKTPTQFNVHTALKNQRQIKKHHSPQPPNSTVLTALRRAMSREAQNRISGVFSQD

[3] = biological target: T1, PIM-1; assay: radioactive in vitro kinase assay, autoradiography; settings: labelled compound; autophosphorylation and GST-NFATC1 (1-418) as acceptor
[4] = biological target: T2, PRK-2; assay: radioactive in vitro kinase assay, autoradiography; settings: labelled compound; autophosphorylation and GST-NFATC1 (1-418) as acceptor

T1 sequence (P11309 whole entry, the tested form may be a part, canonical isoform): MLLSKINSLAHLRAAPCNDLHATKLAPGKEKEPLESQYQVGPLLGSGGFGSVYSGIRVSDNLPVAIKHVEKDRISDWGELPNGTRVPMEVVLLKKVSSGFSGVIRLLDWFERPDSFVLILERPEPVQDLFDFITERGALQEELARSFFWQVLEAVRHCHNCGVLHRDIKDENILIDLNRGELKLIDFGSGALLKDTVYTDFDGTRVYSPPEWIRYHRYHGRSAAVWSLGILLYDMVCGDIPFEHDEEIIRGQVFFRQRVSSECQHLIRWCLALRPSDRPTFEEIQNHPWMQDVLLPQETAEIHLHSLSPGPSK

SMILES: O=Cc1c[nH]c2c1ccc1c3ccccc3[nH]c12 [DHPCC-9]
- relative phosphorylation at 10 μM [1]: DHPCC-9 was able to inhibit autophosphorylation of not only PIM-1, but also PRK-2
- relative phosphorylation at 10 μM [2]: DHPCC-9 was able to inhibit autophosphorylation of not only PIM-1, but also PRK-2

SMILES: Nc1ncnc2c1ncn2[C@@H]1O[C@H](COP(=O)(O)OP(=O)(O)OP(=O)(O)O)[C@@H](O)[C@H]1O [γ-32P-ATP]
- radioactive in vitro kinase assay, autoradiography [3]: both PIM-1 and PRK-2 were able to autophosphorylate themselves
- radioactive in vitro kinase assay, autoradiography [4]: both PIM-1 and PRK-2 were able to autophosphorylate themselves
